According to patent US20200345002A1, “COMPOSITIONS AND METHODS FOR INDUCING CROP CHANGES BY LEVERAGING THE EFFECTS OF AN APPLIED AGRICULTURAL CHEMICAL” (ADVANCED BIOLOGICAL MARKETING, INC., priority 2017, published 2020):

Tested on: weedy target
Experiment: Greenhouse Paraquat spray on weedy target
Type: in vivo
Conditions: 24 hours post spray
Description: Turning to FIG. 8, recovery of replicates of plants using compositions of the present invention is shown. The control is in the upper left and the remaining plants are colonized with single Trichoderma strains, with 3 replicate plants per strain.

C[n+]1ccc(-c2cc[n+](C)cc2)cc1.[Cl-].[Cl-] [Paraquat, N,N′-dimethyl-4,4′-bipyridinium dichloride]
killing effect of the Paraquat application: complete killing effect
